Test results reported in PubChem BioAssay AID179 (DTP/NCI, 2004).
pEC50, pIC50: −log10 of the molar value. Where “and” joins values, the source holds several entries; their conditions need not be identical. Equal entries are not always repeated. Calls of active or inactive are those of the source.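 The calls were made as follows: active = compounds giving half or more protection of infected cells from virus-caused growth loss, again on retest; inactive = the rest.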

Tested on: CEM cells HIV-1 protection, formazan growth assay
Assay: NCI AIDS Antiviral Assay
Conditions: for pIC50: measured here: growth of uninfected CEM cells
Method in brief: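 CEM (human) cells, HIV-1 infected vs uninfected, 5-point dosing, formazan growth read-out. Retest threshold 50% protection.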

Row | SMILES | outcome | pEC50 | pIC50
1 | O=C1C(CN2CCCC2)CCC1CN1CCCC1 (configuration not stated) | inactive | – | –
2 | O=C(O)c1nc(Cl)c(Cl)[nH]c1=O | – | < 3.70 | 4.26
3 | CC1=CC(C)S(=O)(=O)C1 (configuration not stated) | – | < 3.70 | < 3.70
4 | COc1cc2c3c(cccc3c1)C(=O)N(CCN(C)C)C2=O | – | < 3.70 | 5.90
5 | NNCCc1n[nH]c(=O)n1N | – | < 3.70 | < 3.70
6 | CC(O)CC(O)(C(F)(F)F)C(F)(F)F (configuration not stated) | – | < 3.70 | < 3.70
7 | O=C(O)CNc1cc(-c2ccccc2)nc(NCC(=O)O)n1 | inactive | – | –
8 | O=c1n(-c2ccccc2)c(=O)n2c(=O)n(-c3ccccc3)c(=O)n12 | – | < 4.00 | < 4.00
9 | O=C(N=C1OC2C(OC(=O)c3ccccc3)C(COC(=O)c3ccccc3)OC2N1C(=O)c1ccccc1)c1ccccc1 (configuration not stated) | – | < 3.70 | 3.97
10 | O=C(CCBr)N1CCN(C(=O)CCBr)CC1 | – | < 3.15 | 5.03
11 | COc1ccc(-c2c(O)c3c(OC)cc(OC)cc3oc2=O)cc1 | – | < 3.70 | 3.80
12 | O=[N+]([O-])c1ccc(Cl)c(C2SCc3nc4ccccc4n32)c1 (configuration not stated) | – | < 4.40 | 4.48
13 | CC(=O)OCC1OC(n2c(=O)[nH]c(=O)c3sccc32)C(Br)C1OC(C)=O (configuration not stated) | – | < 3.70 | < 3.70
14 | OCC1COc2cc(Cl)c(Cl)cc2O1 (configuration not stated) | – | < 3.70 | 3.92
15 | CC(C)OC1=C(CC2(C)OCCO2)C(=O)C12OCCO2 | – | < 3.70 | < 3.70
16 | COC(=O)c1ccccc1NCc1cc(O)ccc1O | – | < 3.70 | 4.51
17 | O=[N+]([O-])c1ccc(-c2ccc(C3=Nn4c(CNc5ccccc5Cl)nnc4SC3)o2)cc1 | – | < 4.95 | < 4.95
18 | O=c1nc(-c2ccccc2)c2c3c(cccn13)CCC2 | inactive | – | –
19 | N#Cc1ccccc1NC(=O)C(O)C(O)C(O)C(O)C=O (configuration not stated) | – | < 3.70 | < 3.70
20 | COc1cc(N=Nc2c(S(=O)(=O)O)cc3cc(NC(=O)Nc4ccc5c(O)c(N=Nc6ccc7cc(S(=O)(=O)O)ccc7c6)c(S(=O)(=O)O)cc5c4)ccc3c2O)c(C)cc1N | active | – | –
21 | O=C1NC(=O)C(=CN2C(=O)/C(=C/c3ccc(O)cc3)SC2=S)C(=O)N1 | – | < 3.70 | 4.38
22 | CN(C(=O)c1ccco1)C(=S)N1CCN(c2ccccn2)CC1 | – | < 3.40 | 3.68
23 | CCN=C(NNc1ccc([N+](=O)[O-])cc1)P(=O)(OC(C)C)OC(C)C | – | < 4.44 | < 4.44

Row | SMILES | outcome | pEC50 | pIC50
24 | Cc1cccc2c3c(ccc12)C(=O)OC3=O | inactive | – | –
25 | O=[N+]([O-])c1cc(C2ON=C(c3ccccc3)N2C23CC4CC(CC(C4)C2)C3)ccc1Cl (configuration not stated) | – | < 3.70 | 4.09
26 | CN(C)c1ccc(C=C2C(=O)N(c3ccccc3)N(c3ccccc3)C2=O)cc1 | – | < 4.00 | 4.16
27 | C=CCc1cc(OC)c2c(c1)C(O)CC(c1ccc(OC)c(OC)c1)O2 (configuration not stated) | – | < 3.58 | < 3.58
28 | O=C1c2ccccc2C(=O)c2c1ccc1c2N=C(c2ccc(F)cc2)CC(c2ccc(Cl)c(Cl)c2)N1 (configuration not stated) | – | < 4.85 | < 4.85
29 | CCn1cc(C(=O)O)c(=O)c2cc(F)c(N3CCNCC3)nc21 | inactive | – | –
30 | Cc1nc2ccc(S(=O)(=O)Nc3ccc(Cl)cc3)cc2c(=O)n1NC(=O)CNc1ccc(Cl)cc1 | – | < 3.70 | < 3.70
31 | CN1CCC2(CC1)OCCN2CCO | – | < 2.90 | < 2.90
32 | Cc1cc2c(c(=O)n1C)COC2=O | inactive | – | –
33 | O=C(Cc1nc2ccccc2o1)C(=O)Nc1ccccc1C(F)(F)F | inactive | – | –
34 | Cc1nn(C(=O)c2ccncc2)c2c1C(c1ccc(Cl)cc1)SC(N)=N2 (configuration not stated) | – | < 3.70 | 4.51
35 | COc1ccc(C2Oc3c(cc(O)c(OC)c3C)[C@@H]2C)cc1OC (some centres not stated) | – | < 4.10 | 4.32
36 | Cc1nc2c(o1)C(=Nc1ccccc1)c1nc(C)oc1C2=Nc1ccccc1 | inactive | – | –
37 | Cc1ccc2c(=O)c3ccccc3sc2c1 | – | < 3.70 | < 3.70
38 | O=C(C=Nc1ccccc1S)c1ccco1 | inactive | – | –
39 | COc1ccc(NC2=CC(C)(C(=O)O)OC2=O)cc1 (configuration not stated) | – | < 3.70 | < 3.70
40 | O=Cc1c[nH]c2nccnc12 | – | < 3.42 | 3.43
41 | O=C(CC(c1ccccc1)c1c(O)c2ccccc2oc1=O)c1ccccc1 (configuration not stated) | – | < 3.70 | 4.08
42 | Cc1ccc(-c2ccc(Nc3c4ccccc4nc4ccccc34)cc2)cn1 | – | < 3.70 | 5.57
43 | O=C(Nn1c(=S)[nH][nH]c1=S)c1ccccc1 | – | < 3.70 | < 3.70
44 | CC1=Nc2c([nH]c(=S)[nH]c2=O)NC(c2ccc(Cl)c(Cl)c2)C1 (configuration not stated) | – | < 5.11 | < 5.11
45 | CC(C)(C)c1cc(C=C(C#N)C#N)cc(C(C)(C)C)c1O | – | < 4.70 | 6.43
46 | CCCCCCCCCCCCCCCC(=O)OCC(O)CO (configuration not stated) | – | < 4.80 | < 4.80

Row | SMILES | outcome | pEC50 | pIC50
47 | C=CCNC(=S)/N=C/c1c(O)c2ccccc2oc1=O | – | < 4.19 | 4.36
48 | COc1ccc(/C=C/C(=O)C(C)(C)C)cc1 | inactive | – | –
49 | O=C1/C(=C\c2ccccc2O)Cc2ccccc21 | – | < 3.83 | 4.55
50 | CCOC(=O)C1N(S(=O)(=O)c2ccc(C)cc2)CCC12c1ccccc1N(C(C)=O)C2c1ccc(OC)c(OC)c1 (configuration not stated) | inactive | – | –
51 | CCOC(=O)c1c(NC(=O)c2ccccc2)sc2c1CCCC2 | – | < 3.82 | < 3.82
52 | CCOC(=O)c1c2cccccc-2nc1Nc1ccccc1N1C=CC(C)C(C(=O)OC)=C1C(=O)OC (configuration not stated) | – | < 3.70 | 3.89
53 | O=c1[nH]c(=O)n(C2CC(O)C(CO)O2)cc1NN=NCc1ccccc1 (configuration not stated) | – | < 3.70 | < 3.70
54 | CC1=C(C(=O)Nc2c(C)cccc2C)C(c2ccc3c(c2)OCO3)C(C(=O)Nc2c(C)cccc2C)=C(C)N1 | – | < 4.59 | < 4.59
55 | O=C(C(=Cn1c(=S)[nH]c2ccc([N+](=O)[O-])cc21)C(=O)c1ccccc1)c1ccccc1 | – | < 3.70 | 4.09
56 | C/C=C/C[P+](c1ccccc1)(c1ccccc1)c1ccccc1 | – | < 3.70 | 5.83 and 5.88
57 | Cc1cc(C(F)(F)F)nc2nc3ccccc3n12 | – | < 3.70 | < 3.70
58 | O=C1C(=O)N(c2nccs2)C(=O)C(=O)C1c1nc2ccccc2s1 | – | < 4.00 | < 4.00
59 | CCn1c(O)c(C=Nc2ccccc2)s/c1=N/Nc1nc(-c2ccccc2)cs1 | – | < 3.70 | 4.61
60 | COc1ccc2c(c1)-c1c(c3cc(OC)ccc3n1CCN(C)C)CC2 | inactive | – | –
61 | CCOP(=O)(OCC)/C(C#N)=C/c1ccnc2ccccc12 | – | < 3.70 | 4.95
62 | CCc1ccc(/C(=N\NC(N)=S)C2CC2)cc1 | – | < 3.70 | 3.96
63 | CCOC(=O)c1nc2ccc(C(F)(F)F)cc2nc1Oc1ccc(OC)cc1 | – | < 3.70 | < 3.70
64 | O=C(/C=C\c1ccc(Cl)c(Cl)c1)c1ccc(Cl)cc1Cl | – | < 4.84 | < 4.84
65 | COc1cc(CC2c3cc(OC)c(OC)cc3CCN2C)c(Oc2cc3c(cc2OC)-c2c(O)c(OC)cc4c2C(C3)N(C)CC4)cc1OC (configuration not stated) | inactive | – | –
66 | CC[N+]1(C)CCC(O)(c2ccc(Cl)c(Cl)c2)C(C(=O)c2ccc(Cl)c(Cl)c2)C1 (configuration not stated) | – | < 3.70 | 4.65
67 | Nc1nc(N)c(Br)c(Nc2ccc(Cl)c(Cl)c2)n1 | – | 4.28 | 3.81
68 | CCCCCC=C(c1cc(Cl)c(O)c(C(=O)O)c1)c1cc(Cl)c(O)c(C(=O)O)c1 | – | < 4.02 | < 4.02
69 | CC(=O)O[C@H]1CCN2C(=O)C=CC(OCc3ccccc3)C12 (some centres not stated) | – | < 3.08 | 3.10

Row | SMILES | outcome | pEC50 | pIC50
70 | Cc1c(Cl)cccc1NC(=O)C(=O)c1c(O)c2ccc(O)cc2oc1=O | – | < 4.02 | < 4.02
71 | CCOC(=O)c1ccc(NC(=O)SCCC(=O)O)cc1 | inactive | – | –
72 | COc1ccc(NC(=O)C(C#N)=C(SC)SC)cc1 | – | < 3.70 | 5.10
73 | CN(C)C(=S)Nc1ccc(Cl)cc1 | – | < 3.70 | 4.28
74 | O=C(Nc1ccccc1)c1cc(S(=O)(=O)N2CCNC2=O)c(S)cc1Cl | – | 3.95 | 3.88
75 | CC1(C)CCc2cc3c(O)c(-c4ccccc4)c(=O)oc3cc2O1 | – | < 3.70 | 4.11
76 | COc1ccc(SCc2cc(OCc3ccccc3)c(OCc3ccccc3)c(OCc3ccccc3)c2)cc1 | – | < 3.70 | < 3.70
77 | CCN(CCCl)c1cc(C(=O)NCCCN(C)CCCNC(=O)c2cc(N(CC)CCCl)c([N+](=O)[O-])cc2[N+](=O)[O-])c([N+](=O)[O-])cc1[N+](=O)[O-] | – | < 3.70 | 4.97
78 | O=[N+]([O-])C(=C(Nc1ccccc1)Nc1ccccc1)/C(Cl)=C(\Cl)Br | – | < 3.70 | 5.13
79 | O=C(/C=C/c1ccc(O)c(O)c1)O[C@H](C(=O)O)[C@H](OC(=O)/C=C/c1ccc(O)c(O)c1)C(=O)O | – | < 4.07 | 4.70
80 | O=C1C2C3CCC(O3)C2C(=O)N1N1C(=O)C2C3CCC(O3)C2C1=O (configuration not stated) | – | < 3.70 | 4.36
81 | CSc1nncc2[nH]cnc12 | – | < 3.70 | < 3.70
82 | CC(=O)c1sc(Nc2ccc(S(=O)(=O)Nc3nc(C)cc(C)n3)cc2)nc1C | – | < 3.70 | 3.95
83 | CCOP(=O)(OCC)/C(C#N)=C/c1coc2cc(C)cc(C)c2c1=O | – | < 3.70 | < 3.70
84 | CO/C=C/CCCO | – | < 2.67 | < 2.67
85 | O=C(c1ccccc1)C(c1ccccc1)C1(O)C(=O)Nc2ccc([N+](=O)[O-])cc21 (configuration not stated) | – | < 4.59 | < 4.59
86 | O=S(=O)(O)c1ccc(SSc2ccc(S(=O)(=O)O)cc2)cc1 | – | < 3.70 | < 3.70
87 | CCO/C=C(\C(=O)OC)S(=O)(=O)c1ccc(C)cc1 | – | < 3.70 | < 3.70
88 | N#CC1C(=S)NC(c2ccccc2)=CC12CCCCC2 (configuration not stated) | – | < 3.70 | 4.37
89 | CCOC(=O)N1CCN(c2ccc3ccc(N)nc3n2)CC1 | – | < 3.70 | 3.83
90 | COC(=O)/C(C#N)=C(\Nc1ccccc1)N1CCCCC1 | – | < 3.70 | 4.01
91 | CCOC(=O)Oc1cc2c(c(OC)c1OC)-c1ccc(OC)c(=O)cc1C(NC(C)=O)CC2 (configuration not stated) | – | < 5.70 | 8.28
